# Test results from PMC5062570 (Nature Communications, 2016).
# Like-named read-outs stand apart in the source and are kept apart here.
# Experiments:
# [1] = Plasma exposure (average unbound plasma concentration) in dogs; type: in vivo; conditions: both sexes, beagle, oral, dog, read-out: Avg Cp,u parent
# Procedure: (§1) Naive […] beagle dogs (Canis lupus familiaris, >8 months old, n=1 male and n=1 female per group) received daily oral dosing of test compounds or vehicle for 14 days at the indicated concentrations. The doses were prepared in a solution of 0.5% methylcellulose and hydroxypropyl methylcellulose acetate succinate (high fine grade) and delivered in a volume of 5 ml kg^−1 per day. Blood samples for bioanalytical analysis were collected in K2EDTA tubes via jugular vessel. Plasma was isolated after centrifugation and stored at –20 °C before analysis. Animals were killed via intravenous administration of barbiturate followed by exsanguination ∼3 h after the final dose on day 15.
# Plasma samples were analysed after protein precipitation by treating 20 μl of sample matrix with 200 μl of acetonitrile containing internal standard. All samples were centrifuged at 3,000 r.p.m. for 5 min. Then 100 μl of supernatant was transferred to a clean plate and evaporated to dryness under N2. Samples were reconstituted in 200 μl of 80:20 (v:v) acetonitrile:water. Samples were analysed on Waters Acquity UPLC connected to AB Sciex API5500 QTrap MS/MS.
# Plasma protein binding was determined in the Rapid Equilibrium Device (RED, Thermo Scientific). […] Samples were protein-precipitated with acetonitrile containing internal standard, and the resulting supernatant was analysed by LC-MS/MS.
# [2] = test system: retinal pigment epithelium (RPE); test: Exploratory toxicology, ocular toxicity by retinal histology in dogs; type: in vivo; conditions: 14 days; for Female ocular toxicity incidence (positive or negative animals / total evaluated) / Female ocular toxicity outcome / Male ocular toxicity incidence (positive or negative animals / total evaluated) / Male ocular toxicity outcome: dog; for Retinal finding by fluorescence microscopy: dogs
# Procedure: as §1
smiles,measurement,setting,value
Cc1cc([C@H]2C[C@H]3[C@@H](C)SC(N)=N[C@@]3(c3ccc(F)cc3F)CO2)on1 [PF-9283],concentration at 14 days,[1]; 3 mg kg-1 once daily,32 nM
same,concentration at 14 days,[1]; 9 mg kg-1 once daily,401 nM
same,Female ocular toxicity incidence (positive or negative animals / total evaluated),[2]; 3 mg kg-1 once daily,1/1
same,Female ocular toxicity outcome,[2]; 3 mg kg-1 once daily,Neg (negative (neg) if there was no ocular abnormality observed)
same,Male ocular toxicity incidence (positive or negative animals / total evaluated),[2]; 3 mg kg-1 once daily,1/1
same,Male ocular toxicity outcome,[2]; 3 mg kg-1 once daily,Neg (negative (neg) if there was no ocular abnormality observed)
same,Female ocular toxicity incidence (positive or negative animals / total evaluated),[2]; 9 mg kg-1 once daily,1/1
same,Female ocular toxicity outcome,[2]; 9 mg kg-1 once daily,Neg (negative (neg) if there was no ocular abnormality observed)
same,Male ocular toxicity incidence (positive or negative animals / total evaluated),[2]; 9 mg kg-1 once daily,1/1
same,Male ocular toxicity outcome,[2]; 9 mg kg-1 once daily,Pos
same,Retinal finding by fluorescence microscopy,[2]; 3 mg kg-1 daily,not after 3 mg kg-1 dosing
same,Retinal finding by fluorescence microscopy,[2]; 9 mg kg-1 daily,accumulated autofluorescent
